{"source": "patent US5789387A", "about": "(priority 1996, dated 1998)", "key": {"Coccidioides immitis": {"system": "Coccidioides immitis", "conditions": "in vitro, literature; cited from earlier work"}, "plants, fish, or mammals": {"system": "plants, fish, or mammals", "conditions": "under reasonable doses; cited from earlier work"}, "Candida albicans [1]": {"system": "Candida albicans", "conditions": "oral, 10-14 day period; cited from earlier work"}, "Candida albicans B311": {"system": "Candida albicans B311", "experiment": "prevention of mortality in rats infected with lethal doses of Candida albicans, continuous intravenous infusion", "format": "in vivo, rat infected with Candida albicans B311", "experimental": "(§1) Candida albicans strain B311 (originally obtained from H. Hasenclever, National Institutes of Health, Bethesda, Md.) was employed in the following examples. For growth of yeast inocula, frozen culture aliquots were inoculated into 2% glucose, 1% yeast extract broth and grown at 35° C. with shaking until the culture entered the early log phase of growth. Yeast were collected by centrifugation, washed, and adjusted to the appropriate concentration in sterile phosphate-buffered saline (PBS).\nUsing methods similar to those described above, rats were infected intravenously with a higher inoculum level; i.e., 3.2×10^6 cfu/rat, to induce mortalities. Fourteen hours after infection, treatment by continuous infusion was initiated with nikkomycin Z administered continuously at 330 mg/kg/day; control animals were treated with vehicle. Treatment was continued for 96 h, then animals were held for a total of 28 days for observation of mortalities.\nExperiments similar to those described above in this Section were performed to determine the effect of low doses of nikkomycin Z in preventing mortality in animals infected with Candida albicans. Using methods similar to those described above, rats were infected intravenously with 1.05×10^7 cfu/rat of C. albicans B311, a dose that would normally rapidly induce mortalities. The inoculum and the subsequent drug treatment was administered via an indwelling catheter placed in the jugular vein. For the experiment, therapy was initiated 14 h after infection with yeast and nikkomycin Z was administered continuously at 33 or 100 mg/kg/day; control animals were treated with vehicle. All animals were treated continuously for 96 h, with test solutions delivered from syringes using infusion pumps. Syringes and solutions were changed daily. Animals were held for a total of 30 days for observation of mortalities."}, "C. albicans": {"system": "C. albicans", "conditions": "subcutaneous, high concentrations; cited from earlier work"}, "[2]": {"experiment": "plasma levels after subcutaneous sustained release gel (PLURONIC F127) or single intravenous administration, HPLC", "format": "in vivo", "conditions": "rat, single intravenous administration, read-out: mean residence time (MRT), nikkomycin Z total compounds"}, "[3]": {"system": "Candida albicans strain B311", "experiment": "quantitative recovery of viable yeast from kidneys in rat model of systemic candidiasis, continuous intravenous infusion", "format": "in vivo", "conditions": "for decrease in viable yeast per gram of tissue / Geometric mean log10 CFU/gm ± S.E.M. (kidney): 96 h; for Geometric mean log10 CFU/gm ± S.E.M. (kidney): inoculum 1×10^6 cfu/rat", "experimental": "as §1\nA rat model of systemic candidiasis was used to assess the effect of nikkomycin Z in vivo. […] The inoculum and the subsequent drug treatment was administered via an indwelling catheter placed in the jugular vein that was \"tunneled\" out the back and placed inside a protective, flexible, metal sheath. For both experiments, therapy was initiated 12-14 h after infection with nikkomycin Z (formulated in a vehicle of 2% dimethylsulfoxide (DMSO)/ 98% dextrose (5%)) administered continuously at 330 mg/kg/day; control animals were treated with vehicle. In the first experiment, animals were treated continuously for 72 h. In the second experiment, animals were treated continuously for 96 h. Drug and vehicle were administered continuously at a volume of one ml per hour. At 7 or 9 h after cessation of treatment, respectively, all animals were euthanized for the removal of kidneys, which were cultured for the quantitative recovery of viable yeast. From each animal, the two kidneys were placed into tared, sterile tubes (one tube per animal, i.e., two kidneys per tube) containing ten ml of sterile PBS. The kidneys were then weighed and the tube contents homogenized. Organ homogenates were diluted in serial fashion and cultured on Sabourauds agar plates containing 50 μg/ml chloramphenicol for the quantitative recovery of viable yeast. The plates were incubated overnight at room temperature and colonies enumerated. Calculations were made to determine the log10 cfu's per gram of tissue for each animal.\nExperiments similar to those described above were performed to determine the effectiveness of low doses of Nikkomycin Z in reducing the yeast load in organs of infected animals in the rat model of systemic candidiasis. Experimental details such as yeast used, growth conditions, rats used, and methods of inoculation and drug delivery were as described above in Sections 6.1 and 6.2. Inoculum levels were 1×10^6 cfu/rat. Therapy was initiated 14 h after yeast infection and nikkomycin Z was administered continuously at either 33 or 100 mg/kg/day for a total of 96 h; control animals were treated with vehicle. Test solutions were delivered from syringes using infusion pumps; syringes and solutions were changed daily. After cessation of treatment, all animals were euthanized for the removal of kidneys, which were cultured for the quantitative recovery of viable yeast. Organ removal and culture were done as above. Organ homogenates were cultured on Sabourauds agar and incubated overnight for the enumeration of yeasts as above."}, "Candida": {"system": "Candida", "conditions": "subcutaneous injections beginning one hour after inoculation; cited from earlier work"}, "Candida albicans [4]": {"system": "Candida albicans", "conditions": "cited from earlier work"}, "[5]": {"experiment": "plasma concentration of nikkomycin Z following continuous intravenous administration, HPLC/SPE", "format": "in vivo, rat (outbred male albino, strain S/A)", "experimental": "The experimental animals were outbred male albino rats (strain S/A, Simonsen Laboratories, Gilroy, Calif.), 350-400 g average weight, housed one per cage, fed rodent chow and water ad libitum, and identified by ear tags. Rats receiving continuous intravenous administration of nikkomycin Z were cannulated in the left carotid artery and right jugular vein.\nContinuous intravenous administration involved a 2 hour loading dose of 20 mg/kg/hour nikkomycin Z and then an infusion rate of 33 mg/kg/day over 24 hours. The formulation contained 1 mg/ml nikkomycin Z in sterile 5% dextrose. Blood samples of 1 ml were withdrawn at 0, 0.25, 0.5, 1, 2, 4, 6 and 12 h.\nNikkomycin Z was extracted from the plasma samples using solid phase extraction (SPE) columns. The SPE matrix was phenylboronate (PBA) which covalently binds nikkomycin Z at high pH. After washing with 20 mM sodium carbonate/bicarbonate alkaline buffer, nikkomycin Z was eluted from the extraction column with a 20 mM glycine solution at pH 1.2. Following a drying and reconstitution step, nikkomycin Z plasma concentration was determined using reverse phase HPLC. The plasma concentrations of nikkomycin Z derived from the HPLC analysis were plotted against time."}, "chitin synthesis": {"system": "chitin synthesis", "conditions": "subcutaneous, high concentrations; cited from earlier work"}, "chitin synthase": {"system": "chitin synthase", "conditions": "in words; cited from earlier work"}, "Candida albicans [6]": {"system": "Candida albicans", "conditions": "in vitro; prolonged exposure; literature; cited from earlier work"}, "[7]": {"conditions": "bolus intravenous once daily, up to 20 days"}}, "note": "Entries after “also recorded” stand apart in the source; their conditions may differ.", "data": [{"molecule": "C[C@@H]([C@H](N)C(=O)N[C@H](C(=O)O)[C@H]1O[C@@H](n2ccc(=O)[nH]c2=O)[C@H](O)[C@@H]1O)[C@H](O)c1ccc(O)cn1", "note": "[nikkomycin Z]", "values": [{"measurement": "concentration at which C. immitis is rapidly susceptible", "setting": "Coccidioides immitis", "value": "60 to 100", "unit": "µM"}, {"measurement": "toxicity", "setting": "plants, fish, or mammals", "value": "no toxicity against plants, fish, or mammals under reasonable doses"}, {"measurement": "survival", "setting": "Candida albicans [1]", "value": "animals ultimately succumbed to infection"}, {"measurement": "survival", "setting": "Candida albicans B311; 33 mg/kg/day continuous infusion 96 h, inoculum 1.05×10^7 cfu/rat, 30 days observation", "value": "all animals receiving nikkomycin Z at either 33 or 100 mg/kg/day by continuous infusion survived the entire observation period; also recorded: complete protection of rats against a lethal challenge with Candida albicans"}, {"measurement": "survival", "setting": "Candida albicans B311; 100 mg/kg/day continuous infusion 96 h, inoculum 1.05×10^7 cfu/rat, 30 days observation", "value": "all animals receiving nikkomycin Z at either 33 or 100 mg/kg/day by continuous infusion survived the entire observation period"}, {"measurement": "survival", "setting": "Candida albicans B311; 330 mg/kg/day continuous infusion 96 h, inoculum 3.2×10^6 cfu/rat, 28 days observation", "value": "all animals receiving nikkomycin Z by continuous infusion survived the entire observation period"}, {"measurement": "numbers of yeasts in kidneys / efficacy", "setting": "C. albicans", "value": "treatment did not result in any reduction in numbers of yeasts"}, {"measurement": "MRT", "setting": "[2]", "value": 12, "unit": "min"}, {"measurement": "reduction of yeast load in organs (in words)", "setting": "[3]; 33 mg/kg/day continuous infusion, 96 h (4 days)", "value": "sufficient to dramatically reduce the yeast load in organs of infected animals; also recorded: significantly reduce the yeast organ load"}, {"measurement": "decrease in viable yeast per gram of tissue", "setting": "[3]; 33 mg/kg/day", "value": "approximately 1 log10 units"}, {"measurement": "Geometric mean log10 CFU/gm ± S.E.M. (kidney)", "setting": "[3]; 33 mg/kg/day", "value": "4.23 ± 0.15", "unit": "log10 CFU/gm"}, {"measurement": "decrease in viable yeast per gram of tissue", "setting": "[3]; 100 mg/kg/day", "value": "~2", "unit": "log10 units"}, {"measurement": "Geometric mean log10 CFU/gm ± S.E.M. (kidney)", "setting": "[3]; 100 mg/kg/day", "value": "3.48 ± 0.15", "unit": "log10 CFU/gm"}, {"measurement": "Geometric mean log10 CFU/gm ± S.E.M. (kidney), Exp. 1", "setting": "[3]; Exp. 1, 330 mg/kg/day continuous infusion over 72 h, inoculum 6.2×10^5 cfu/rat", "value": "3.09 ± .16 log10 CFU/gm"}, {"measurement": "Geometric mean log10 CFU/gm ± S.E.M. (kidney), Exp. 2", "setting": "[3]; Exp. 2, 330 mg/kg/day continuous infusion over 96 h, inoculum […]10^6 cfu/rat", "value": "3.73 ± .05 log10 CFU/gm"}, {"measurement": "protection against experimental candidiasis", "setting": "Candida", "value": "some protection"}, {"measurement": "efficacy as characterized by others", "setting": "Candida albicans [4]; [7]", "value": "modest efficacy; also recorded: limited efficacy"}, {"measurement": "mortality of infected mice", "setting": "Candida albicans [4]; [7]", "value": "a delay in the onset of mortalities in infected mice; also recorded: essentially all mice died shortly after cessation of therapy"}, {"measurement": "promotion of survival and reduction of fungal burden in kidneys (prior studies)", "setting": "Candida albicans [4]; summary of earlier studies with reasonable delay between challenge and administration (oral, iv bolus, sc)", "value": "at best in a fungistatic fashion with only marginal activity in promoting survival and only limited ability to reduce the fungal burden in the kidneys"}, {"measurement": "steady state plasma concentration", "setting": "[5]; infusion 33 mg/kg/day intravenous after loading dose, 33 mg/kg/day", "value": "about 170 ng/ml"}, {"measurement": "Tmax", "setting": "[5]; rat, plasma, 2 hour loading dose of 20 mg/kg/h, then 33 mg/kg/day intravenous", "value": 60, "unit": "min"}, {"measurement": "Cmax", "setting": "[5]; rat, plasma, 2 hour loading dose of 20 mg/kg/h, then 33 mg/kg/day intravenous, read-out: maximum plasma concentration", "value": "~6.6", "unit": "µg/mL"}, {"measurement": "chitin synthesis in vivo", "setting": "chitin synthesis", "value": "depress chitin synthesis in vivo"}, {"measurement": "inhibition of chitin synthase", "setting": "chitin synthase", "value": "potent inhibitor"}]}, {"molecule": "NC(=O)OC[C@H](O)[C@@H](O)[C@H](N)C(=O)N[C@H](C(=O)O)[C@H]1O[C@@H](n2cc(C(=O)O)c(=O)[nH]c2=O)[C@H](O)[C@@H]1O", "note": "[polyoxin D]", "values": [{"measurement": "concentration at which C. immitis is rapidly susceptible", "setting": "Coccidioides immitis", "value": "60 to 100", "unit": "µM"}, {"measurement": "effect on Candida cells (in words)", "setting": "Candida albicans [6]", "value": "exhibited a phenomenon called \"chaining\". Although deformed, these cells were able to survive several replications, though ultimately they became sensitive to osmotic pressures and would lyse"}]}]}
